Experimental findings from PubChem BioAssay AID330 (DTP/NCI, 2004) are described below.

Each structure is given as a SMILES string. “And” between values parts separate entries of the source, which are not always exact repeats. Equal values may be shown once. Inconclusive results and toxic doses are left out.

This assay relates to P388 leukemia ip, CD2F1 mice, survival T/C. Description: NCI In Vivo Anticancer Drug Screen. Data for tumor model P388 Leukemia (intraperitoneal) in CD2F1 (CDF1) mice. The following applies: endpoint: median survival time, higher = longer survival. The method in brief: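 Mice carrying the transplanted tumor received test compound or vehicle. Survival was recorded in each group, and the value is the treated-group measurement divided by that of the vehicle-treated control group.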

Setting [1] is: dose: 12.5 mg/kg/injection, schedule: Q01DX005 (ip), vehicle: saline with Tween-80.
[2] abbreviates: dose: 25.0 mg/kg/injection, schedule: Q01DX005 (ip), vehicle: saline with Tween-80.
Where [3] appears, read: dose: 50.0 mg/kg/injection, schedule: Q01DX005 (ip), vehicle: saline with Tween-80.
Setting [4] is: dose: 100.0 mg/kg/injection, schedule: Q01DX005 (ip), vehicle: saline with Tween-80.
Where [5] appears, read: dose: 200.0 mg/kg/injection, schedule: Q01DX005 (ip), vehicle: saline with Tween-80.
[6] abbreviates: dose: 60.0 mg/kg/injection, schedule: Q01DX005 (ip), vehicle: saline with Tween-80.
Setting [7] is: dose: 120.0 mg/kg/injection, schedule: Q01DX005 (ip), vehicle: saline with Tween-80.
Where [8] appears, read: dose: 240.0 mg/kg/injection, schedule: Q01DX005 (ip), vehicle: saline with Tween-80.
Setting [9] is: dose: 50.0 mg/kg/injection, schedule: Q01DX005 (ip), vehicle: saline.
Where [10] appears, read: dose: 100.0 mg/kg/injection, schedule: Q01DX005 (ip), vehicle: saline.

Turning to `COc1cc2c(cc1Cl)nc1c(=O)[nH]c(=O)nc-1n2CCN1CCCC1`, the T/C by setting is: under setting [1], 100 % of control; under setting [2], 108 % of control; under setting [3], 111 % of control and 115 % of control; under setting [4], 116 % of control; under setting [5], 114 % of control.

Turning to `Cc1c(-c2ccccc2)ccnc1/C=N/NC(=S)NCCCN(C)C`, the T/C is, setting by setting: (dose: 12.5 mg/kg/injection, schedule: Q01DX009 (ip), vehicle: other) 105 % of control; (dose: 25.0 mg/kg/injection, schedule: Q01DX009 (ip), vehicle: other) 114 % of control; (dose: 50.0 mg/kg/injection, schedule: Q01DX009 (ip), vehicle: other) 101 % of control and 112 % of control.

Take `O=c1[nH]c2ccccc2c(=O)n1CCCCCCN1CCN(c2cccc(Cl)c2)CC1`: the T/C is, setting by setting: (dose: 50.0 mg/kg/injection, schedule: Q01DX009 (ip), vehicle: Klucel (hydroxypropylcellulose) (HPC)) 96 % of control; (dose: 100.0 mg/kg/injection, schedule: Q01DX009 (ip), vehicle: Klucel (hydroxypropylcellulose) (HPC)) 105 % of control; (dose: 200.0 mg/kg/injection, schedule: Q01DX009 (ip), vehicle: Klucel (hydroxypropylcellulose) (HPC)) 100 % of control.

Turning to `C=C1C(=O)OC2C(OC=O)CCCC12` (centres undefined), the T/C runs as follows: (dose: 60.0 mg/kg/injection, schedule: Q01DX005 (ip), vehicle: Klucel (hydroxypropylcellulose) (HPC)) 100 % of control; (dose: 120.0 mg/kg/injection, schedule: Q01DX005 (ip), vehicle: Klucel (hydroxypropylcellulose) (HPC)) 103 % of control.

In the case of `N#CC(OC(=O)c1cccc(C(=O)OC(C#N)(C(F)(F)F)C(F)(F)F)c1Sc1ccccc1)(C(F)(F)F)C(F)(F)F`, the T/C is 109 % of control (dose: 100.0 mg/kg/injection, schedule: Q04DX002 (ip), vehicle: Klucel (hydroxypropylcellulose) (HPC)) and 115 % of control (dose: 400.0 mg/kg/injection, schedule: Q04DX002 (ip), vehicle: Klucel (hydroxypropylcellulose) (HPC)).

Regarding `O=C(O)CN(CCN(CC(=O)O)CC(=O)O)CC(=O)O.[Cl][Pd][Cl]`, the T/C is 97 % of control (dose: 15.0 mg/kg/injection, schedule: Q01DX005 (ip), vehicle: saline); 93 % of control (dose: 30.0 mg/kg/injection, schedule: Q01DX005 (ip), vehicle: saline); 91 % of control and 95 % of control (dose: 60.0 mg/kg/injection, schedule: Q01DX005 (ip), vehicle: saline).

For the molecule `Cc1cc2c(C(C)C)c(O)c(O)c(C=NC3CCCCC3)c2c(O)c1-c1c(C)cc2c(C(C)C)c(O)c(O)c(C=NC3CCCCC3)c2c1O`, the T/C is, setting by setting: under setting [1], 103 % of control; under setting [2], 92 % of control; under setting [3], 88 % of control.

In the case of `CN(C)/C=N/NC(=O)c1ccccc1N`, the T/C by setting is: under setting [6], 101 % of control; under setting [7], 101 % of control; under setting [8], 100 % of control.

Take `O=C1CSC(c2ccccc2F)N1c1ncccn1` (centres undefined): the T/C by setting is: (dose: 12.5 mg/kg/injection, schedule: Q01DX005 (ip), vehicle: Klucel (hydroxypropylcellulose) (HPC)) 105 % of control; (dose: 25.0 mg/kg/injection, schedule: Q01DX005 (ip), vehicle: Klucel (hydroxypropylcellulose) (HPC)) 108 % of control; (dose: 50.0 mg/kg/injection, schedule: Q01DX005 (ip), vehicle: Klucel (hydroxypropylcellulose) (HPC)) 108 % of control (2×) and 119 % of control; (dose: 100.0 mg/kg/injection, schedule: Q01DX005 (ip), vehicle: Klucel (hydroxypropylcellulose) (HPC)) 104 % of control and 109 % of control and 119 % of control; (dose: 200.0 mg/kg/injection, schedule: Q01DX005 (ip), vehicle: Klucel (hydroxypropylcellulose) (HPC)) 100 % of control and 109 % of control.

Turning to `CCCCCOc1ccc(C(=O)/C(Br)=C/C(=O)O)cc1`, the T/C (dose: 12.5 mg/kg/injection, schedule: Q01DX009 (ip), vehicle: saline with Tween-80) is 104 % of control; the T/C (dose: 25.0 mg/kg/injection, schedule: Q01DX009 (ip), vehicle: saline with Tween-80) was 109 % of control; the T/C (dose: 50.0 mg/kg/injection, schedule: Q01DX009 (ip), vehicle: saline with Tween-80) was 123 % of control.

Turning to `CC(=O)c1cc(C(O)C(O)C(O)C(O)CO)[nH]c1C` (centres undefined), the T/C reads like this: under setting [9], 108 % of control; under setting [10], 108 % of control; (dose: 200.0 mg/kg/injection, schedule: Q01DX005 (ip), vehicle: saline) 110 % of control.

Turning to `COC(=O)C1C2COc3ccccc3C2=NC1c1ccc([N+](=O)[O-])cc1` (centres undefined), the T/C reads like this: (dose: 25.0 mg/kg/injection, schedule: Q01DX001 (ip), vehicle: Klucel (hydroxypropylcellulose) (HPC)) 91 % of control; (dose: 50.0 mg/kg/injection, schedule: Q01DX001 (ip), vehicle: Klucel (hydroxypropylcellulose) (HPC)) 96 % of control; (dose: 100.0 mg/kg/injection, schedule: Q01DX001 (ip), vehicle: Klucel (hydroxypropylcellulose) (HPC)) 95 % of control.

Consider `[NH-]C(CCC(N)=O)C(=O)O.[NH-]C(CCCN=C(N)N)C(=O)O.[Zn+2]` (centres undefined), for which the T/C is 100 % of control and 106 % of control (dose: 25.0 mg/kg/injection, schedule: Q01DX005 (ip), vehicle: saline); 103 % of control and 106 % of control under setting [9]; 110 % of control and 119 % of control under setting [10].

For the molecule `c1ccc(C2(c3ccc(C4(c5ccccc5)Oc5ccccc5S4)[nH]3)Oc3ccccc3S2)cc1` (centres undefined), the T/C is 96 % of control under setting [6] and 107 % of control under setting [7].

For the molecule `COc1ccccc1NC(=O)C1=CNC(C)=C(C(=O)Nc2ccccc2OC)C1/C=C/c1ccccc1` (centres undefined), the T/C is 100 % of control under setting [6], 105 % of control under setting [7] and 105 % of control under setting [8].

Turning to `COc1cc2c(c(OC)c1OC)-c1ccc(SC)c(=O)cc1[C@@H](NC(=O)Oc1ccccc1)CC2`, the T/C (dose: 5.0 mg/kg/injection, schedule: Q01DX009 (ip), vehicle: Klucel (hydroxypropylcellulose) (HPC)) was 164 % of control.

With `Clc1ccccc1C(Nc1nncs1)Nc1nncs1`, the T/C runs as follows: under setting [6], 106 % of control; under setting [7], 113 % of control; under setting [8], 122 % of control.

For the molecule `C[N-]N(C)C(=O)[S-].C[N-]N(C)C(=O)[S-].C[N-]N(C)C(=O)[S-].[Co]`, the T/C by setting is: (dose: 25.0 mg/kg/injection, schedule: Q04DX003 (ip), vehicle: saline with Tween-80) 103 % of control; (dose: 50.0 mg/kg/injection, schedule: Q04DX003 (ip), vehicle: saline with Tween-80) 103 % of control.

Turning to `O=C(/C=C/c1c[nH]c2ccccc12)c1ccccc1[N+](=O)[O-]`, the T/C under setting [6] was 94 % of control and the T/C under setting [7] was 90 % of control.

Take `O=C(NN1C(=O)CSC1c1ccccc1F)c1ccncc1` (centres undefined): the T/C by setting is: under setting [3], 93 % of control; under setting [4], 108 % of control; under setting [5], 97 % of control.

On to `CCOC(=O)Nc1ccc2c(c1[N+](=O)[O-])c1cc([N+](=O)[O-])cc([N+](=O)[O-])c1n2CC`, for which the T/C was 98 % of control under setting [3], 90 % of control under setting [4] and 86 % of control under setting [5].

As to `CC1=CCC(C(C)C2CCC3(C)C4=C(C=C5C=CC(=O)OC(C)(C)C5CC4)CCC23C)OC1=O` (centres undefined), the T/C is, setting by setting: (dose: 12.5 mg/kg/injection, schedule: Q01DX005 (ip), vehicle: other) 108 % of control; (dose: 25.0 mg/kg/injection, schedule: Q01DX005 (ip), vehicle: other) 100 % of control; (dose: 50.0 mg/kg/injection, schedule: Q01DX005 (ip), vehicle: other) 93 % of control; (dose: 100.0 mg/kg/injection, schedule: Q01DX005 (ip), vehicle: other) 91 % of control.

In the case of `CCOC(=O)CC1=CSC(=C(C#N)C#N)N1c1ccccc1`, the T/C reads like this: under setting [3], 102 % of control; under setting [4], 98 % of control; under setting [5], 98 % of control.

Consider `O=C(Nc1ccc([N+](=O)[O-])cc1)OCCI`, for which the T/C reads like this: (dose: 100.0 mg/kg/injection, schedule: Q04DX003 (ip), vehicle: saline with Tween-80) 101 % of control; (dose: 200.0 mg/kg/injection, schedule: Q04DX003 (ip), vehicle: saline with Tween-80) 92 % of control; (dose: 400.0 mg/kg/injection, schedule: Q04DX003 (ip), vehicle: saline with Tween-80) 92 % of control.

In the case of `CCOC(=O)C(N)CSC(c1ccccc1)(c1ccccc1)c1ccccc1` (centres undefined), the T/C is 117 % of control and 98 % of control (dose: 12.5 mg/kg/injection, schedule: Q01DX009 (ip), vehicle: water); 114 % of control (dose: 25.0 mg/kg/injection, schedule: Q01DX009 (oral), vehicle: water); 155 % of control (dose: 50.0 mg/kg/injection, schedule: Q01DX009 (ip), vehicle: water); 180 % of control (dose: 200.0 mg/kg/injection, schedule: Q04DX003 (ip), vehicle: saline).
